Measured values taken from US7105566B2, “Methods of treatment during vascular procedures” (Allergan, Inc., priority 2002, dated 2006).

System: male SJL mice
Test: Serum triglycerides (STG) in male SJL mice
Type: in vivo, mouse
Settings: 20 mg/kg oral daily
Experimental: Male SJL mice were dosed orally with vehicle, Compound 1 (an RAR pan-antagonist), or Compound 3 (an RARE antagonist) for 4 consecutive days. The structure and synthesis of Compound 1 is described in Example I. The structure of Compound 3 is shown below, and the compound was synthesized using routine methods:
The test compounds were dissolved in corn oil and given at a dosage/volume of 20 mg/5 ml/kg.
On day 3, serum triglycerides (STG) were determined from samples collected at 7 a.m.
On day 4, animals were fasted after dosing, starting at 8 a.m. Following 6 hours of fasting, blood samples were collected prior to intravenous injection of WR-1339 at 100 mg/5 ml/kg. Additional serum samples were collected at 1 and 2 hours after WR-1339 injection. WR-1339 is a detergent that inactivates lipoprotein lipase and thus prevents the removal of triglycerides from circulation. By measuring the increase of STG after WR-1339 administration in fasted animals, the hepatic triglyceride (HTG) output during fasting can be estimated.
Due to the lack of effect of Compound 3 at 20 mg/kg, the dose was increased to 100 mg/kg in the same set of mice. STG was determined on day 3 prior to dosing (Day 3, 8 a.m.). […] To ensure that Compound 3 would be bioavailable, Compound 3 was dissolved in DMSO and given by intraperitoneal injections, once at 4 p.m. on day 3 and once at 8 a.m. on day 4, at a dosage of 100 mg/kg/injection. Administration of WR-1339 and blood collections on day 4 were similarly conducted as described above.

## CCc1ccc(C2=CC(C)(C)Sc3ccc(C#Cc4ccc(C(=O)O)cc4)cc32)cc1 [Compound 1, 4-[[4-(4-ethylphenyl)-2,2-dimethyl-(2H)-thiochromen-6-yl]-ethynyl]-benzoic acid]
  non-fasting STG (Day 3, 8 a.m.): appeared to lower
After 6 hours of fasting
  fasting STG (Day 4, 2 p.m.): but not fasting STG
